Experimental data reported in patent US20230416227A1, “PLASMA KALLIKREIN INHIBITORS” (Merck Sharp & Dohme LLC, priority 2020, published 2023).

What was measured:
human factor XIa = human factor XIa (Homo sapiens, UniProt P03951); assay: Factor XIa Assay; assay type: biochemical; settings: human factor XIa 0.04 nM, substrate GPR-AFC, 30 min pre-incubation at 25° C., pH 7.4; read-out: FXIa IC50
Human plasma kallikrein = target: T1, Human plasma kallikrein (Homo sapiens, UniProt P03952); assay: Plasma Kallikrein Assay; assay type: biochemical; settings: purified Human plasma kallikrein 0.5 nM, substrate Acetyl-K-P-R-AFC, pH 7.4
T1 construct: yields a heavy chain (371 amino acids) and a light chain (248 amino acids); purchased Enzyme Research Laboratories
T1 sequence (P03952 391-638 limits assumed): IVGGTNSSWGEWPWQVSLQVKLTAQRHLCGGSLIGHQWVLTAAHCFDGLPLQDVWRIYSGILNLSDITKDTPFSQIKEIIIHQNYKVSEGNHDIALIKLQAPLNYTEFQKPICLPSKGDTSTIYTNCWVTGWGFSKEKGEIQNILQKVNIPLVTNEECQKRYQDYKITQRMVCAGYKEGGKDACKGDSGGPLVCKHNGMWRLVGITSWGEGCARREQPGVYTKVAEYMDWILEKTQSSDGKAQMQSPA
T1 sequence (P03952 20-390 partner limits assumed): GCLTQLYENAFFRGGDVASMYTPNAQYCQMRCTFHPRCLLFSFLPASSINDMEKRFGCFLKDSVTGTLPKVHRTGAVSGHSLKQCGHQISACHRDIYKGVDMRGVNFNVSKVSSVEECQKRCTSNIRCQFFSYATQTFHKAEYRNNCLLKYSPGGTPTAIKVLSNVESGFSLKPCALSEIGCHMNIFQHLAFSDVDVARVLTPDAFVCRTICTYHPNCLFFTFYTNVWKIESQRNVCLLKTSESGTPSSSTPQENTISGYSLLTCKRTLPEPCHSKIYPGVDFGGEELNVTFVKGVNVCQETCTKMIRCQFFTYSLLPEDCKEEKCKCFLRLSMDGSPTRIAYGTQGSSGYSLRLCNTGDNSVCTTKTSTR

Sequence of human factor XIa (P03951 388-625 limits assumed): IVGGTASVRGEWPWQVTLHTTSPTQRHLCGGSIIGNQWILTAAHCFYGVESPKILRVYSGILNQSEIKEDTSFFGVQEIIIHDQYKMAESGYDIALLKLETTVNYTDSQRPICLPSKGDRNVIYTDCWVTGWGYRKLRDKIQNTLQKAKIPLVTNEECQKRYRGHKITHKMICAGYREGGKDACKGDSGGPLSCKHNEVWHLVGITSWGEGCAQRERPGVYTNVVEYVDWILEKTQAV
Sequence of human factor XIa (P03951 19-387 partner limits assumed): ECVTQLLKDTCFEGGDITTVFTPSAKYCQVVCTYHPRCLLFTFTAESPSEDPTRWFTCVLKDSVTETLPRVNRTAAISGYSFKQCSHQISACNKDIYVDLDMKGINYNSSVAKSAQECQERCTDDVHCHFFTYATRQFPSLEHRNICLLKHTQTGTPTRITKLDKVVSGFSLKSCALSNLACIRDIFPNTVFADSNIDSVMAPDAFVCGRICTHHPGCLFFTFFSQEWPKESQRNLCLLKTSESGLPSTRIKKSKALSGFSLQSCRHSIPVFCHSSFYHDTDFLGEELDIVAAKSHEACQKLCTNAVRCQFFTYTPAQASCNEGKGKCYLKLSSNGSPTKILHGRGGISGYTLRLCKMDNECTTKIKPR

For `O=C(Nc1cnn(Cc2cnc(N3CCC[C@H]3CN3CC[C@@H](O)C3)nc2)c1)c1cncc(-c2c(C(F)F)ccc(Cl)c2F)n1` [Example 142, 6-(3-Chloro-6-(difluoromethyl)-2-fluorophenyl)-N-(1-((2-((S)-2-(((R)-3-hydroxypyrrolidin-1-yl)methyl)pyrrolidin-1-yl)pyrimidin-5-yl)methyl)-1H-pyrazol-4-yl)pyrazine-2-carboxamide], the IC50 (human factor XIa) was 2170 nM and the IC50 (Human plasma kallikrein) was 0.4 nM.
Work on `O=C(Nc1cnn(Cc2cnc(N3CCC3)nc2C2CC2)c1)c1cncc(-c2c(C(F)F)ccc(Cl)c2F)n1` [Example 22, N-(1-((2-(Azetidin-1-yl)-4-cyclopropylpyrimidin-5-yl)methyl)-1H-pyrazol-4-yl)-6-(3-chloro-6-(difluoromethyl)-2-fluorophenyl)pyrazine-2-carboxamide] yielded an IC50 (human factor XIa) of 4370 nM and an IC50 (Human plasma kallikrein) of 22.3 nM.
`Cc1ncc(-c2c(C(F)F)ccc(Cl)c2F)nc1C(=O)Nc1cnn(C(C)c2cnc(N3CCC3)nc2)c1` (single isomer, unassigned) [Example 27, (S or R)-N-(1-(1-(2-(azetidin-1-yl)pyrimidin-5-yl)ethyl)-1H-pyrazol-4-yl)-6-(3-chloro-6-(difluoromethyl)-2-fluorophenyl)-3-methylpyrazine-2-carboxamide] showed an IC50 (human factor XIa) of 869 nM and an IC50 (Human plasma kallikrein) of 3.8 nM.
`O=C(Nc1cnn(Cc2cnc(N3CCCC3CCO)nc2)c1)c1cncc(-c2c(C(F)F)ccc(Cl)c2F)n1` (single isomer, unassigned) [Example 102, (S or R)-6-(3-Chloro-6-(difluoromethyl)-2-fluorophenyl)-N-(1-((2-(2-(2-hydroxyethyl)pyrrolidin-1-yl)pyrimidin-5-yl)methyl)-1H-pyrazol-4-yl)pyrazine-2-carboxamide] showed an IC50 (human factor XIa) of 2250 nM and an IC50 (Human plasma kallikrein) of 31.2 nM.
`Cc1cc(N2CCC2)ncc1Cn1cc(NC(=O)c2cncc(-c3c(C(F)F)ccc(Cl)c3F)n2)cn1` [Example 17, N-(1-((6-(Azetidin-1-yl)-4-methylpyridin-3-yl)methyl)-1H-pyrazol-4-yl)-6-(3-chloro-6-(difluoromethyl)-2-fluorophenyl)pyrazine-2-carboxamide] showed an IC50 (human factor XIa) of 1370 nM and an IC50 (Human plasma kallikrein) of 10.2 nM.
In the case of `[2H]C(C)(c1cnc(N2CCC2)nc1)n1cc(NC(=O)c2cncc(-c3c(C(F)F)ccc(Cl)c3F)n2)cn1` (single isomer, unassigned) [Example 42, (S or R)-N-(1-(1-(2-(azetidin-1-yl)pyrimidin-5-yl)ethyl-1-d)-1H-pyrazol-4-yl)-6-(3-chloro-6-(difluoromethyl)-2-fluorophenyl)pyrazine-2-carboxamide], the IC50 (human factor XIa) is reported as 1110 nM and the IC50 (Human plasma kallikrein) is reported as 4.7 nM.
In the case of `Cc1nc(N2CCC2)cnc1C(C)n1cc(NC(=O)c2cncc(-c3c(C(F)F)ccc(Cl)c3F)n2)cn1` (single isomer, unassigned) [Example 41, (S or R)-N-(1-(1-(5-(azetidin-1-yl)-3-methylpyrazin-2-yl)ethyl)-1H-pyrazol-4-yl)-6-(3-chloro-6-(difluoromethyl)-2-fluorophenyl)pyrazine-2-carboxamide], the IC50 (human factor XIa) is reported as 4210 nM and the IC50 (Human plasma kallikrein) is reported as 2.1 nM.
With `CC(c1cnc(N2CC[C@H]2CN2CC[C@@H](O)C2)nc1)n1cc(NC(=O)c2cncc(-c3c(C(F)F)ccc(Cl)c3F)n2)cn1` (stereo partly drawn) [Example 163, 6-(3-Chloro-6-(difluoromethyl)-2-fluorophenyl)-N-(1-(1-(2-((S)-2-(((R)-3-hydroxypyrrolidin-1-yl)methyl)azetidin-1-yl)pyrimidin-5-yl)ethyl)-1H-pyrazol-4-yl)pyrazine-2-carboxamide] the IC50 (human factor XIa) was 4850 nM and the IC50 (Human plasma kallikrein) was 1.2 nM.
With `C[C@@H](c1cnc(N2CCC2)nc1)n1cc(NC(=O)c2cncc(-c3c(C(F)(F)F)ccc(Cl)c3F)n2)cn1` (single isomer, unassigned) [Example 55] the IC50 (human factor XIa) was 3940 nM and the IC50 (Human plasma kallikrein) was 24.4 nM.
`COc1ccc(-n2cnnn2)c(-c2cncc(C(=O)Nc3cnn(C(C)c4cnc(N5CCC5)nc4)c3)n2)c1` (single isomer, unassigned) [Example 60, (S or R)-N-(1-(1-(2-(Azetidin-1-yl)pyrimidin-5-yl)ethyl)-1H-pyrazol-4-yl)-6-(5-methoxy-2-(1H-tetrazol-1-yl)phenyl)pyrazine-2-carboxamide] gave an IC50 (human factor XIa) of 730 nM and an IC50 (Human plasma kallikrein) of 47 nM.
In the case of `COc1ncc(-c2c(C(F)F)ccc(Cl)c2F)nc1C(=O)Nc1cnn(Cc2cnc(N3CCC3)nc2)c1` [Example 1, N-(1-((2-(Azetidin-1-yl)pyrimidin-5-yl)methyl)-1H-pyrazol-4-yl)-6-(3-chloro-6-(difluoromethyl)-2-fluorophenyl)-3-methoxypyrazine-2-carboxamide], the IC50 (human factor XIa) is reported as 921 nM and the IC50 (Human plasma kallikrein) is reported as 10.2 nM.
For `CC(c1cnc(N2CC3CC3C2)nc1)n1cc(NC(=O)c2cncc(-c3c(C(F)F)ccc(Cl)c3F)n2)cn1` (single isomer, unassigned) [Example 32, N-(1-((1R or 1S)-1-(2-(3-azabicyclo[3.1.0]hexan-3-yl)pyrimidin-5-yl)ethyl)-1H-pyrazol-4-yl)-6-(3-chloro-6-(difluoromethyl)-2-fluorophenyl)pyrazine-2-carboxamide], the IC50 (human factor XIa) was 1520 nM and the IC50 (Human plasma kallikrein) was 8.1 nM.
In the case of `O=C(Nc1cnn(C(CO)c2cnc(N3CC4CC4C3)nc2)c1)c1cncc(-c2c(C(F)F)ccc(Cl)c2F)n1` (single isomer, unassigned) [Example 44, N-(1-((S or R)-1-(2-(3-Azabicyclo[3.1.0]hexan-3-yl)pyrimidin-5-yl)-2-hydroxyethyl)-1H-pyrazol-4-yl)-6-(3-chloro-6-(difluoromethyl)-2-fluorophenyl)pyrazine-2-carboxamide], the IC50 (human factor XIa) is reported as 1460 nM and the IC50 (Human plasma kallikrein) is reported as 10.3 nM.
Compound `O=C(Nc1cnn(Cc2cnc(N3CCC3)nc2)c1)c1cncc(-c2c(OC(F)F)ccc(Cl)c2F)n1` [Example 64, N-(1-((2-(Azetidin-1-yl)pyrimidin-5-yl)methyl)-1H-pyrazol-4-yl)-6-(3-chloro-6-(difluoromethoxy)-2-fluorophenyl)pyrazine-2-carboxamide] has an IC50 (human factor XIa) of 292 nM and an IC50 (Human plasma kallikrein) of 9.6 nM.
For `O=C(Nc1cnn(Cc2cnc(N3CCC3)cn2)c1)c1cncc(-c2c(C(F)F)ccc(Cl)c2F)n1` [Example 13, N-(1-((5-(Azetidin-1-yl)pyrazin-2-yl)methyl)-1H-pyrazol-4-yl)-6-(3-chloro-6-(difluoromethyl)-2-fluorophenyl)pyrazine-2-carboxamide], the IC50 (human factor XIa) was 1840 nM and the IC50 (Human plasma kallikrein) was 7.2 nM.
For `O=C(Nc1cnn(Cc2ccc(N3CCC(O)C3)nc2)c1)c1cncc(-c2c(C(F)F)ccc(Cl)c2F)n1` (stereo not drawn) [Example 123, 6-(3-Chloro-6-(difluoromethyl)-2-fluorophenyl)-N-(1-((6-(3-hydroxypyrrolidin-1-yl)pyridin-3-yl)methyl)-1H-pyrazol-4-yl)pyrazine-2-carboxamide], the IC50 (human factor XIa) was 3330 nM and the IC50 (Human plasma kallikrein) was 27.3 nM.
Compound `O=C(Nc1cnn(C(CO)c2cnc(N3CC4CC4C3)nc2)c1)c1cncc(-c2c(C(F)F)ccc(Cl)c2F)n1` (single isomer, unassigned) [Example 45, N-(1-((R or S)-1-(2-(3-Azabicyclo[3.1.0]hexan-3-yl)pyrimidin-5-yl)-2-hydroxyethyl)-1H-pyrazol-4-yl)-6-(3-chloro-6-(difluoromethyl)-2-fluorophenyl)pyrazine-2-carboxamide] has an IC50 (human factor XIa) of 992 nM and an IC50 (Human plasma kallikrein) of 23.2 nM.
With `NC(=O)c1ncc(-c2c(C(F)F)ccc(Cl)c2F)nc1C(=O)Nc1cnn(Cc2cnc(N3CCC3)nc2)c1` [Example 138, N^2-(1-((2-(Azetidin-1-yl)pyrimidin-5-yl)methyl)-1H-pyrazol-4-yl)-6-(3-chloro-6-(difluoromethyl)-2-fluorophenyl)pyrazine-2,3-dicarboxamide] the IC50 (human factor XIa) was 2320 nM and the IC50 (Human plasma kallikrein) was 14.6 nM.
`CCc1ncc(-c2c(C(F)F)ccc(Cl)c2F)nc1C(=O)Nc1cnn(Cc2cnc(N3CCC3)nc2)c1` [Example 14, N-(1-((2-(Azetidin-1-yl)pyrimidin-5-yl)methyl)-1H-pyrazol-4-yl)-6-(3-chloro-6-(difluoromethyl)-2-fluorophenyl)-3-ethylpyrazine-2-carboxamide] gave an IC50 (human factor XIa) of 312 nM and an IC50 (Human plasma kallikrein) of 8 nM.
`Cc1nc(N2CCC2)ccc1Cn1cc(NC(=O)c2cncc(-c3c(C(F)F)ccc(Cl)c3F)n2)cn1` [Example 9, N-(1-((6-(Azetidin-1-yl)-2-methylpyridin-3-yl)methyl)-1H-pyrazol-4-yl)-6-(3-chloro-6-(difluoromethyl)-2-fluorophenyl)pyrazine-2-carboxamide] gave an IC50 (human factor XIa) of 5100 nM and an IC50 (Human plasma kallikrein) of 5.2 nM.
`O=C(Nc1cnn(Cc2cnc(N3CCC3)nc2)n1)c1cncc(-c2c(C(F)F)ccc(Cl)c2F)n1` [Example 25, N-(2-((2-(Azetidin-1-yl)pyrimidin-5-yl)methyl)-2H-1,2,3-triazol-4-yl)-6-(3-chloro-6-(difluoromethyl)-2-fluorophenyl)pyrazine-2-carboxamide] was tested, and the IC50 (human factor XIa) was 6090 nM and the IC50 (Human plasma kallikrein) was 41.3 nM.
In the case of `Cc1nc(C(C)n2cc(NC(=O)c3cncc(-c4c(C(F)F)ccc(Cl)c4F)n3)cn2)cnc1N1CCC1` (single isomer, unassigned) [Example 40, (R or S)-N-(1-(1-(5-(azetidin-1-yl)-6-methylpyrazin-2-yl)ethyl)-1H-pyrazol-4-yl)-6-(3-chloro-6-(difluoromethyl)-2-fluorophenyl)pyrazine-2-carboxamide], the IC50 (human factor XIa) is reported as 794 nM and the IC50 (Human plasma kallikrein) is reported as 3.7 nM.
For `COc1ccc(-n2cnnn2)c(-c2cncc(C(=O)Nc3cnn(C(C)c4cnc(N5CCC5)nc4)c3)n2)c1` (single isomer, unassigned) [Example 61, (R or S)-N-(1-(1-(2-(Azetidin-1-yl)pyrimidin-5-yl)ethyl)-1H-pyrazol-4-yl)-6-(5-methoxy-2-(1H-tetrazol-1-yl)phenyl)pyrazine-2-carboxamide], the IC50 (human factor XIa) was 662 nM and the IC50 (Human plasma kallikrein) was 14 nM.
`Cc1nc(N2CCC2)ncc1[C@@H](C)n1cc(NC(=O)c2cncc(-c3c(C(F)F)ccc(Cl)c3F)n2)cn1` (single isomer, unassigned) [Example 70] gave an IC50 (human factor XIa) of 485 nM and an IC50 (Human plasma kallikrein) of 1.4 nM.
